Data reported in patent US8703424B2, “Predicting human developmental toxicity of pharmaceuticals using human stem-like cells and metabolomics” (Stemina Biomarker Discovery, Inc., priority 2010, dated 2014).

Key:
WA09 hES cells = test: Pathway enrichment analysis of annotated mass features on KEGG human metabolic networks (Example 8); format: cell-based; conditions: across dose levels; positive and negative features
Protocol: Pathways enrichment analysis was performed by mapping annotated mass features for each experimental compound to human metabolic networks using KEGG compound ids. Hypergeometric p-values and false discovery rates (FDR) were used to assign a quantitative measure of statistical significance to each network. Features derived from ESI negative and positive mode for each experimental compound were pooled for this analysis. False positive results can be generated by isobaric compounds that generate multiple “hits” in a network from the same mass, so unique masses instead of unique compound ids were used for these calculations. The relevant parameters used to calculate hypergeometric p-values for each network were: the number of unique mass “hits”, the number of unique masses in the network, and the total number of unique masses in all of the human networks in the KEGG database. For each experimental compound, the p-values for the derived networks were converted to FDR using the Benjamini and Hochberg (1995) correction.
Feature Selection was performed on a per compound basis using a one-way anova evaluating the difference of dose level means and on a per dose basis using Welch T-tests and PLS-DA VIP score. […] If a feature was selected as interesting in a drug or dose level comparison it was then evaluated experiment wide for fold changes. Following feature selection only significant features putatively annotated as mammalian in origin and present on KEGG network diagrams were further evaluated. […] These selection criteria focused the analysis on biochemical pathways.
Following selection, features were passed through a quality control evaluation of extracted ion chromatograms (EICs) to confirm the validity of individual mass features. Features passing quality control were further evaluated to confirm estimated fold changes. After removing poor quality and duplicate features, the remaining ESI positive and ESI negative mode features were combined into a unified dataset for evaluation of pathway enrichment by treatment.

[1] = system: WA09 human embryonic stem (hES) cells; test: PLS-DA prediction of teratogenicity from secretome of treated hES cells (Example 9)
From the text: These included 11 known teratogens and 11 known non-teratogens. The current model is based on the mean fold change (treatment versus its associated intra-experimental control) of 15 metabolites common among the secretome of hES cells treated with pharmaceutical agents and unknown chemical compounds.

[2] = DevTox pharmaceutical, high dose (H = 10x circulating dose)
[3] = DevTox pharmaceutical, low dose (L = 0.1x circulating dose)
[4] = EPA compounds, high dose level (H)
[5] = EPA compounds, low dose level (L)
[6] = EPA compounds, medium dose level (M)

Structure (SMILES): CN(C)CCOC(C)(c1ccccc1)c1ccccn1 (stereo not shown) [Doxylamine]
- Number of unique KEGG ID annotations: Alanine, aspartate and glutamate metabolism (WA09 hES cells): 1
- Number of unique KEGG ID annotations: Arginine and proline metabolism (WA09 hES cells): 1
- Number of unique KEGG ID annotations: Ascorbate and aldarate metabolism (WA09 hES cells): 2
- Number of unique KEGG ID annotations: Citrate cycle (TCA cycle) (WA09 hES cells): 1
- Number of unique KEGG ID annotations: Cysteine and methionine metabolism (WA09 hES cells): 2
- Number of unique KEGG ID annotations: Galactose metabolism (WA09 hES cells): 2
- Number of unique KEGG ID annotations: Glutathione metabolism (WA09 hES cells): 1
- Number of unique KEGG ID annotations: Glyoxylate and dicarboxylate metabolism (WA09 hES cells): 3
- Number of unique KEGG ID annotations: Nicotinate and nicotinamide metabolism (WA09 hES cells): 5
- Number of unique KEGG ID annotations: Pantothenate and CoA biosynthesis (WA09 hES cells): 3
- Number of unique KEGG ID annotations: Pentose and glucuronate interconversions (WA09 hES cells): 3
- Number of unique KEGG ID annotations: Pentose phosphate pathway (WA09 hES cells): 1
- Number of unique KEGG ID annotations: Propanoate metabolism (WA09 hES cells): 3
- Number of unique KEGG ID annotations: Pyruvate metabolism (WA09 hES cells): 6
- Number of unique KEGG ID annotations: Vitamin B6 metabolism (WA09 hES cells): 3
- PLS-DA classification ([1]; 0.38 μM): not classified as a teratogen
- % Non (PLS-DA class probability non-teratogen) [1, 2]: 0.38
- % Ter (PLS-DA class probability teratogen) [1, 2]: 0.62
- Confidence (difference between class probabilities) [1, 2]: 0.24
- Prediction [1, 2]: Ter
- % Non (PLS-DA class probability non-teratogen) [1, 3]: 0.58
- % Ter (PLS-DA class probability teratogen) [1, 3]: 0.42
- Confidence (difference between class probabilities) [1, 3]: 0.16
- Prediction [1, 3]: Non
- % Non (PLS-DA generated class probability) [1, 4]: 0.45
- % Ter (PLS-DA generated class probability) [1, 4]: 0.55
- Prediction [1, 4]: Ter
- Confidence (difference between class probabilities) ([1]; EPA compounds, high dose level (H), values less than 0.1 inconclusive): 0.1
- % Non (PLS-DA generated class probability) [1, 5]: 0.41
- % Ter (PLS-DA generated class probability) [1, 5]: 0.59
- Prediction [1, 5]: Ter
- Confidence (difference between class probabilities) ([1]; EPA compounds, low dose level (L), values less than 0.1 inconclusive): 0.18
- % Non (PLS-DA generated class probability) [1, 6]: 0.44
- % Ter (PLS-DA generated class probability) [1, 6]: 0.56
- Prediction [1, 6]: Ter
- Confidence (difference between class probabilities) ([1]; EPA compounds, medium dose level (M), values less than 0.1 inconclusive): 0.12
- Teratogenicity Classification ([1]; [Doxylamine] 0.038 μm, devTox low): Non
- Teratogenicity Classification ([1]; [Doxylamine] 0.38 μm, devTox medium): Non
- Teratogenicity Classification ([1]; [Doxylamine] 1 μm, EPA low): Ter
- Teratogenicity Classification ([1]; [Doxylamine] 3.8 μm, devTox high): Ter
- Teratogenicity Classification ([1]; [Doxylamine] 10 μm, EPA medium): Ter
- Teratogenicity Classification ([1]; [Doxylamine] 100 μm, EPA high): Ter
- PLS-DA classification, these studies (EPA set) ([1]; all three concentrations (low, medium, and high)): teratogen
- PLS-DA classification, developmental toxicity assay (Table 11) ([1]; high concentration): teratogen
- PLS-DA classification, developmental toxicity assay (Table 11) ([1]; low and medium dose): non-teratogen
- PLS-DA classification of EPA-provided chemical agents ([1]; overall conclusion): potential teratogens
